One data set has as its target Cannabinoid receptor 1 (Homo sapiens, UniProt P21554). Nature of the data set: Displacement of [3H]-SR141716A from recombinant human CB1 receptor expressed in CHO cells membrane incubated for 90 mins. It is filed as cell membranes.
Data set [1] deals with T1, Cannabinoid receptor 2 (Homo sapiens, UniProt P34972). The data set is described as follows: Displacement of [3H]-WIN55212-2 from human CB2 receptor transfected in CHO cells membrane incubated for 90 mins. Type of data set: cell membranes.
T1 sequence (P34972 whole entry): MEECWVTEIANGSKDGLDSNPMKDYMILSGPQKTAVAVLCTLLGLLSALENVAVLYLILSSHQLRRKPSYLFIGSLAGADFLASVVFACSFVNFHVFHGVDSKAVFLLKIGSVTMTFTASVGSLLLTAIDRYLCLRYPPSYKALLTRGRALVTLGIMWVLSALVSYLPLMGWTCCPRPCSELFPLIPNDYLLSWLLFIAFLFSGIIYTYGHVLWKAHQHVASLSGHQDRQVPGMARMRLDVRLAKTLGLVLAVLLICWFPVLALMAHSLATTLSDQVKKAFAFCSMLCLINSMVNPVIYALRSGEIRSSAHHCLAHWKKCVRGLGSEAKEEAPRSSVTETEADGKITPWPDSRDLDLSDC
The species named for data set [2] is Homo sapiens. The data set is described as follows: Selectivity ratio of Ki for displacement of [3H]-SR141716A from human CB1 receptor to Ki for displacement of [3H]-WIN55212-2 from human CB2 receptor. On the technique in general: In a radioligand displacement assay an active substance lowers the binding of a labelled ligand.
The species entered for data set [3] is Homo sapiens. The data set is described as follows: Selectivity ratio of Ki for human CB1 receptor to Ki for human CB2 receptor.
For data set [4], the target named is T2, Cannabinoid receptor 2 (Rattus norvegicus, UniProt Q9QZN9).
T2 sequence (Q9QZN9 whole entry): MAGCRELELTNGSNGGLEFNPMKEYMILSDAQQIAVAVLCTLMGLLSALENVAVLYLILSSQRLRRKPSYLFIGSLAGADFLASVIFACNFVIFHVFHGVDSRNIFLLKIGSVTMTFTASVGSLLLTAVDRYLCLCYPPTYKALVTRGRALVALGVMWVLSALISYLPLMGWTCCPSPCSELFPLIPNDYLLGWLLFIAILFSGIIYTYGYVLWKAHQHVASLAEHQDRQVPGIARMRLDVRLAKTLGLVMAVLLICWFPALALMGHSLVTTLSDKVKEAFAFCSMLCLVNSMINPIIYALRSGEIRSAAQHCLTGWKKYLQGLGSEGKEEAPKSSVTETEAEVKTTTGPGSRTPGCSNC
Nature of the data set: Displacement of [18F]-LU13 from rat spleen CB2 receptor incubated for 90 mins by competitive radioligand binding assay. It is filed as tissue-based.

The target of data set [5] is T1, Cannabinoid receptor 2. The data set is described as follows: Displacement of [18F]-LU13 from human CB2 receptor transfected in CHO cells membrane homogenate incubated for 90 mins by competitive radioligand binding assay. Type of data set: cell membranes.
Data set [6] in a line: Metabolic stability in CD-1 mouse plasma assessed as parent compound remaining measured after 30 mins by radio-HPLC analysis. Type of data set: ADME, cell-free. Particulars: read-out: Stability.
Data set [7] in a line: Metabolic stability in CD-1 mouse brain assessed as parent compound remaining measured after 30 mins by radio-HPLC analysis. As to conditions: read-out: Stability. Type of data set: ADME, tissue-based.
Data set [8] in a line: Metabolic stability in CD-1 mouse spleen assessed as parent compound remaining measured after 30 mins by radio-HPLC analysis. Type of data set: ADME, tissue-based. Particulars: read-out: Stability.
Data set [9] can be described thus: Drug uptake in iv dosed Wistar rat brain striatum overexpressing human CB2 receptor (D80N) assessed as time to peak radioactivity measured after 26 mins of post injection by PET imaging analysis. It is filed as ADME, organism-based. As to conditions: in vivo.
The nature of data set [10]: Drug uptake in iv dosed Wistar rat brain striatum overexpressing human CB2 receptor (D80N) assessed as TAC peak standardized uptake of compound by PET imaging analysis. It is filed as ADME, organism-based. Particulars: in vivo.
A short description of data set [11]: Drug uptake in iv dosed Wistar rat brain contralateral region overexpressing human CB2 receptor (D80N) assessed as time to peak radioactivity measured after 26 mins of post injection by PET imaging analysis. Type of data set: ADME, organism-based. As to conditions: in vivo.
Data set [12] in a line: Drug uptake in iv dosed Wistar rat brain contralateral region overexpressing human CB2 receptor (D80N) assessed as TAC peak standardized uptake of compound by PET imaging analysis. Particulars: in vivo. It is filed as ADME, organism-based.
The nature of data set [13]: MRT in iv dosed Wistar rat brain contralateral region overexpressing human CB2 receptor (D80N) by PET imaging analysis. It is filed as ADME, organism-based. As to conditions: in vivo.
Data set [14] can be described thus: Drug uptake in iv dosed Wistar rat brain cerebellum overexpressing human CB2 receptor (D80N) assessed as time to peak radioactivity measured after 26 mins of post infection by PET imaging analysis. Type of data set: ADME, organism-based. Particulars: in vivo.
Data set [15] in a line: Drug uptake in iv dosed Wistar rat brain cerebellum overexpressing human CB2 receptor (D80N) assessed as TAC peak standardized uptake of compound by PET imaging analysis. Type of data set: ADME, organism-based. Particulars: in vivo.
Data set [16] is described as follows: MRT in iv dosed Wistar rat brain cerebellum overexpressing human CB2 receptor (D80N) by PET imaging analysis. It is filed as ADME, organism-based. As to conditions: in vivo.
Data set [17] deals with T1, Cannabinoid receptor 2. The data set is described as follows: Inhibition of human CB2 receptor assessed as inhibition constant. Type of data set: functional.
The target of data set [18] is T1, Cannabinoid receptor 2. Nature of the data set: Displacement of [3H]-WIN55212-2 from human CB2 receptor transfected in CHO-K1 cell membrane incubated for 90 mins by Liquid scintillation counter analysis. Type of data set: cell membranes.
The mark [19] stands for this setting: tested as the 18F-labelled form.

Sequence of Cannabinoid receptor 1 (P21554 whole entry): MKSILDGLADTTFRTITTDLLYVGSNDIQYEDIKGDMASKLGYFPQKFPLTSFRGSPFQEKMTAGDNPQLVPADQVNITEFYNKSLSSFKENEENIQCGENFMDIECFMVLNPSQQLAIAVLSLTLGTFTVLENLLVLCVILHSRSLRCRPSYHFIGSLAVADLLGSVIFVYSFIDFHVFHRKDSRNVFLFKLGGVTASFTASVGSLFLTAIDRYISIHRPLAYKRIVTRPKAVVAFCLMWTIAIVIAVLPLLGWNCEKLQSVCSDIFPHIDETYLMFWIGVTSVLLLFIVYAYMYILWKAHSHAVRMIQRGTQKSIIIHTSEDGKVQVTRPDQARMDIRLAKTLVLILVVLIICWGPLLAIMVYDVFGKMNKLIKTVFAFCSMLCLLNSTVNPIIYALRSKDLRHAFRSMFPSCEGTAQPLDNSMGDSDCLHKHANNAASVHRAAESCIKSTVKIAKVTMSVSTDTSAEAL

The Ki is the dissociation constant of the complex between target and ligand, obtained from inhibition or displacement. As for `C[C@H]1CC[C@@H](NC(=O)c2cc3cccnc3n(CCCCF)c2=O)CC1`, the Ki at Cannabinoid receptor 1 is 0.006 µM; at Cannabinoid receptor 2 [1] it was greater than 1 µM. In addition, the Ratio Ki in the data set filed under Homo sapiens [2] is greater than 167.
For `C[C@H]1CC[C@@H](NC(=O)c2cc3cc(-c4ccco4)cnc3n(CCCF)c2=O)CC1`, the Ki is 0.028 µM on Cannabinoid receptor 1 and greater than 10 µM on Cannabinoid receptor 2 [1].
For the molecule `COc1cccc2c(=O)c(C(=O)NC34CC5CC(CC(C5)C3)C4)cn(CCOCCCF)c12`, the Ratio Ki in the data set filed under Homo sapiens [2] (setting [19]) is greater than 10000.
In the case of `O=C(Nc1ccccc1)c1cc2cccnc2n(CCCCF)c1=O`, the figures for the Ki on Cannabinoid receptor 1 and at Cannabinoid receptor 2 [1] were 2.2 µM and greater than 10 µM, respectively.
Take `C[C@H]1CC[C@@H](NC(=O)c2cc3cc(-c4ccco4)cnc3n(Cc3ccc(F)cc3)c2=O)CC1`: the inhibition constant Ki on Cannabinoid receptor 1 was determined as 0.005 µM; at Cannabinoid receptor 2 [1] it was 0.915 µM. In addition, the Ratio Ki in the data set listed under Homo sapiens [2] was greater than 183.
Regarding `C[C@H]1CC[C@H](NC(=O)c2cc3cc(-c4ccco4)cnc3n(Cc3ccccc3F)c2=O)CC1`, the Ki on Cannabinoid receptor 1 was greater than 10 µM.
Same read-out and setting: with `C[C@H]1CC[C@H](NC(=O)c2cc3cc(-c4ccco4)cnc3n(CCCCF)c2=O)CC1` the figure was 0.049 µM.
For `CCCCOc1c(OC)ccc2cc(C(=O)NC3CCCCC3)c(=O)[nH]c12`, the Ratio Ki in the data set listed under Homo sapiens [3] (tested as the 11C-labelled form) is 100.
On to `C[C@H]1CC[C@H](NC(=O)c2cc3cc(-c4ccco4)cnc3n(CCCF)c2=O)CC1`, for which the inhibition constant Ki on Cannabinoid receptor 1 was 6.8 µM.
In the case of `C[C@H]1CC[C@@H](NC(=O)c2cc3cc(-c4ccco4)cnc3n(Cc3cccc(F)c3)c2=O)CC1`, the values for the Ki at Cannabinoid receptor 1 and on Cannabinoid receptor 2 [1] were 0.0029 µM and greater than 10 µM, respectively. Further, the Ratio Ki in the data set filed under Homo sapiens [2] is greater than 1000.
With `O=C(NC12CC3CC(CC(C3)C1)C2)c1cc2cccnc2n(CCOCCF)c1=O`, the Ki is 0.0039 µM at Cannabinoid receptor 1 and greater than 1 µM at Cannabinoid receptor 2 [1].
Turning to `C[C@H]1CC[C@@H](NC(=O)c2cc3cccnc3n(CCOCCF)c2=O)CC1`, the Ki at Cannabinoid receptor 1 was 0.013 µM; at Cannabinoid receptor 2 [1], greater than 10 µM. In addition, the Ratio Ki in the data set filed under Homo sapiens [2] was greater than 714.
As a reminder, the IC50 is the midpoint of a concentration-inhibition curve. High values mean a need for much substance, low ones inhibition by little substance. As to `O=C(NC12CC3CC(CC(C3)C1)C2)c1cc2cccnc2n(CCCCF)c1=O`, the Ki on Cannabinoid receptor 1 is 0.0006 µM; on Cannabinoid receptor 2 [1] it was greater than 1 µM. Further, in the data set listed under Homo sapiens [2], the Ratio Ki is greater than 1000. The IC50 on Cannabinoid receptor 2 [4] turned out to be 0.00022 µM; at Cannabinoid receptor 2 [5] it was 0.00117 µM.
`O=C(NCc1ccc(F)cc1)c1cc2cccnc2n(CCCCF)c1=O`: the figures for the inhibition constant Ki at Cannabinoid receptor 1 and at Cannabinoid receptor 2 [1] were 1.1 µM and greater than 10 µM, respectively.
`C[C@H]1CC[C@H](NC(=O)c2cc3cc(-c4ccco4)cnc3n(Cc3cccc(F)c3)c2=O)CC1`: at Cannabinoid receptor 1, the Ki amounted to 5 µM.
In general, MRT refers to the average time that molecules of a dose stay in the body. Regarding `[2H]C([2H])([18F])C([2H])([2H])C([2H])([2H])C([2H])([2H])n1c(=O)c(C(=O)NC23CC4CC(CC(C4)C2)C3)cc2cccnc21`, the remaining at 0.5 h amounted to 23% in data set [6], 85% in data set [7] and 95% in [8]. Further, the Drug uptake was found to be 26 min in data set [9]; 3.6 SUV.min in data set [10]; 6.1 min in data set [11]; 1.7 SUV.min in [12]; 5.4 min in data set [14]; 1.8 SUV.min in data set [15]. Further, the MRT in data set [13] and in [16] was 23 min in each case.
For `CC1CCC(NC(=O)c2cc3cc(Br)cnc3n(Cc3ccc(F)cc3)c2=O)CC1` (mixture of isomers), the inhibitory constant (Ki) on Cannabinoid receptor 1 was 0.0017 µM; on Cannabinoid receptor 2 [1], greater than 0.155 µM. Also, the Ratio Ki in the data set filed under Homo sapiens [2] was 91.
`O=C(Nc1ccc(F)nc1)c1cc2cccnc2n(CCCCF)c1=O`: the Ki was greater than 1 µM at Cannabinoid receptor 1 and greater than 10 µM on Cannabinoid receptor 2 [1].
As to `C[C@H]1CC[C@H](NC(=O)c2cc3cccnc3n(CCCF)c2=O)CC1`, the Ki at Cannabinoid receptor 1 was determined as 4.6 µM.
In the case of `C[C@H]1CC[C@@H](NC(=O)c2cc3cc(-c4ccco4)cnc3n(CCCCF)c2=O)CC1`, the Ki was 0.0033 µM on Cannabinoid receptor 1 and greater than 10 µM on Cannabinoid receptor 2 [1]. The Ratio Ki in the data set filed under Homo sapiens [2] was greater than 303.
For `C[C@H]1CC[C@H](NC(=O)c2cc3cccnc3n(CCOCCF)c2=O)CC1`, at Cannabinoid receptor 1, the Ki was determined as 0.78 µM.
As for `[2H]C([2H])([18F])C([2H])([2H])C([2H])([2H])OC(=O)C(CC)(CC)NC(=O)c1ccc(N2CC(OC)C2)c(OC[C@H]2C[C@@H]2CO)n1`, the Ki at Cannabinoid receptor 2 [17] came out at 0.0006 µM.
For the molecule `C[C@H]1CC[C@@H](NC(=O)c2cc3cc(-c4ccco4)cnc3n(Cc3ccccc3F)c2=O)CC1`, the Ki on Cannabinoid receptor 1 is 0.065 µM; on Cannabinoid receptor 2 [1] it was greater than 10 µM. Moreover, in the data set filed under Homo sapiens [2], the Ratio Ki is greater than 153.
With `C[C@H]1CC[C@H](NC(=O)c2cc3cc(-c4ccco4)cnc3n(Cc3ccc(F)cc3)c2=O)CC1`, the Ki at Cannabinoid receptor 1 was found to be 0.086 µM.
Consider `CC1CCC(NC(=O)c2cc3cc(Br)cnc3n(CCCCF)c2=O)CC1` (mixture of isomers), for which the Ki on Cannabinoid receptor 1 was 0.0048 µM; at Cannabinoid receptor 2 [1], greater than 10 µM.
As to `O=C(NC12CC3CC(CC(C3)C1)C2)c1cc2cccnc2n(Cc2ccc(F)cc2)c1=O`, the Ki at Cannabinoid receptor 1 was 0.0015 µM; at Cannabinoid receptor 2 [1] it was greater than 1 µM.
In the case of `COc1cccc2c(=O)c(C(=O)NC34CC5CC(CC(C5)C3)C4)cn(CCOCCC[18F])c12`, affinity on Cannabinoid receptor 2 [18] was put at a Ki of 0.0009 µM.
As for `C[C@H]1CC[C@@H](NC(=O)c2cc3cccnc3n(CCCF)c2=O)CC1`, the inhibition constant (Ki) at Cannabinoid receptor 1 is 0.115 µM.
Take `O=C(Nc1ccncc1)c1cc2cccnc2n(CCCCF)c1=O`: the Ki on Cannabinoid receptor 1 was greater than 1 µM; on Cannabinoid receptor 2 [1] it was greater than 10 µM.
`Cc1s/c(=N\C(=O)C2C(C)(C)C2(C)C)n(CCCC[18F])c1C` had a Ki on Cannabinoid receptor 2 [1] of 0.0004 µM.
Take `O=C(Nc1ccc(F)cc1)c1cc2cccnc2n(CCCCF)c1=O`: the inhibition constant (Ki) at Cannabinoid receptor 1 was 3.9 µM; on Cannabinoid receptor 2 [1] it was greater than 10 µM.
In the case of `Cc1s/c(=N\C(=O)C2C(C)(C)C2(C)C)n(CCCCF)c1C`, the Ratio Ki in the data set filed under Homo sapiens [2] (setting [19]) was determined as 1000.
For the molecule `O=C(Nc1cccnc1)c1cc2cccnc2n(CCCCF)c1=O`, the Ki on Cannabinoid receptor 1 is greater than 1 µM; on Cannabinoid receptor 2 [1] it was greater than 10 µM.
For `CCC(CC)(NC(=O)c1ccc(N2CC(OC)C2)c(OC[C@H]2C[C@@H]2CO)n1)C(=O)OCCCF`, the Ratio Ki in the data set listed under Homo sapiens [3] (tested as the 18F, 2H-labelled form) was greater than 10000.

The record behind these values is ChEMBL document CHEMBL5143730, “Structure-Based Design, Optimization, and Development of [18F]LU13: A Novel Radioligand for Cannabinoid Receptor Type 2 Imaging in the Brain with PET” (J Med Chem, 2022).
